Test [1] deals with TNF-α production in human PBMC (peripheral blood mononuclear cells). Kind of test: Inhibition of TNF-alpha production in human PBMC (IGEN technology). The test is classed as cell-based. Conditions: inhibition of LPS-stimulated TNF-α production in human PBMC; measured and/or mean; read-out: PBMC pIC50 (IGEN assay) (converted). As for the experimental part:
Test compounds are prepared as a ca. 10 mM stock solution in DMSO and a dilution series prepared in DMSO with 8 successive 3fold dilutions, either directly from the 10 mM stock solution or from a more dilute solution in DMSO. The compound is added to assay plates using a Biomek Fx liquid handling robot.
PBMC cells (peripheral blood mononuclear cells) are prepared from heparinised human blood from normal volunteers by centrifugation on histopaque at ca. 1000 g for ca. 30 minutes. The cells are collected from the interface, washed by centrifugation (ca. 1300 g, ca. 10 minutes) and resuspended in assay buffer (RPMI 1640 containing 10% foetal calf serum, 1% L-glutamine and 1% penicillin/streptomycin) at 1×10^6 cells/ml. Ca. 50 μl (ca. 50 ul) of cells are added to microtitre wells containing ca. 0.5 or ca. 1.0 μl (ul) of an appropriately diluted compound solution. Ca. […]
The supernatant is removed and the concentrations of TNF-α are determined by electrochemiluminescence assay using the IGEN technology or by ELISA (see below).
Ca. […] 50 μl (ul) of streptavidin/biotinylated anti-TNF-α antibody mix, ca. 25 μl ruthenium tagged anti-TNF-α monoclonal and ca. 100 μl PBS containing 0.1% bovine serum albumin are added to each well and the plates are sealed and shaken for ca. 2 hours before being read on an IGEN instrument.

In test [2] the target is T1, PDE4B (human recombinant) (Homo sapiens, UniProt Q07343).
T1 construct: made in house
Kind of test: PDE4B inhibition, fluorescence polarisation (FP) and/or SPA assay. It counts as biochemical. Conditions: n=1 or average of 2 or more readings, accuracy ±about 0.5 log unit, read-out: PDE4B pIC50 (generally in FP assay) (±about 0.5) (converted). In outline:
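Human recombinant PDE4B (yeast-expressed, HSPDE4B2B variant) preincubated with compound 10-30 min at ambient temperature; SPA with ~10 nM [3H]cAMP, 1 h, Tris-HCl pH 7.5, ≤20% hydrolysis; or IMAP FP with ~40 nM fluorescein-cAMP, Tris-HCl pH 7.2. pIC50 from 10-point curves (1.5 nM-30 uM).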

Results on 3 molecules are retold here after patent US20090326003A1, “PYRAZOLO (3, 4-B) PYRIDINE DERIVATIVES AS PDE4 INHIBITORS” (priority 2006, published 2009).

T1 sequence (Q07343 1-564 isoform Q07343-2): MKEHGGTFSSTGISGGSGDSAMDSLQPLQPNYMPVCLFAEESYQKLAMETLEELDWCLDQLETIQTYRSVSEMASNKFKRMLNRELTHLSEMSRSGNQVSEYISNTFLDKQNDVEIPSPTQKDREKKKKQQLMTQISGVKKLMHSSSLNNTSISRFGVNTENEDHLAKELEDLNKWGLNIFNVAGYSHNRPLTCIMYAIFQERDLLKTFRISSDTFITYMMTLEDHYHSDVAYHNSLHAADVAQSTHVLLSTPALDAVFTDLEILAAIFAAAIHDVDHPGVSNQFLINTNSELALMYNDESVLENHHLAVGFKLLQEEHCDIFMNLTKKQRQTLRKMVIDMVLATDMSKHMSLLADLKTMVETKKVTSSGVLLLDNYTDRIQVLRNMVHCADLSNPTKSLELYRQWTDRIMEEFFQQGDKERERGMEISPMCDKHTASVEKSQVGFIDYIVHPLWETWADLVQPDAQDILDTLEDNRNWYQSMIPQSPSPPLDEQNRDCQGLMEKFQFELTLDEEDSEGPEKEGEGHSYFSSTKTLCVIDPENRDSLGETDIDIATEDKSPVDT

Regarding `CCc1nc2c(cnn2CC)c(NC2CCOCC2)c1CNC(=O)c1ccc(-c2ccc(C(=O)NCc3c(CC)nc4c(cnn4CC)c3NC3CCOCC3)cc2)cc1` [Example 23, N,N′-bis{[1,6-diethyl-4-(tetrahydro-2H-pyran-4-ylamino)-1H-pyrazolo[3,4-b]pyridin-5-yl]methyl}-4,4′-biphenyldicarboxamide], the IC50 was approximately 0.0501 nM in test [1] and approximately 0.158 nM in test [2].

As to `CCn1ncc2c(NC3CCOCC3)c(CNC(=O)c3cccc(-c4cccc(C(=O)NCc5c(C)nc6c(cnn6CC)c5NC5CCOCC5)c4)c3)c(C)nc21` [Example 29, N,N′-bis{[1-ethyl-6-methyl-4-(tetrahydro-2H-pyran-4-ylamino)-1H-pyrazolo[3,4-b]pyridin-5-yl]methyl}-3,3′-biphenyldicarboxamide], in test [2], the IC50 is approximately 0.1 nM.

For `CCc1nc2c(cnn2CC)c(NC2CCOCC2)c1CNC(=O)c1ccc(C(=O)NCc2c(CC)nc3c(cnn3CC)c2NC2CCOCC2)o1` [Example 35, N,N′-bis{[1,6-diethyl-4-(tetrahydro-2H-pyran-4-ylamino)-1H-pyrazolo[3,4-b]pyridin-5-yl]methyl}-2,5furandicarboxamide], the IC50 in test [2] was approximately 0.0398 nM.
